The source of these data is patent publication US10087187B2, “Imidazopyridazine derivatives as PI3KB inhibitors” (Janssen Pharmaceutica NV, priority 2014, dated 2018).

The target in one assay is PIK3Cα_h (Homo sapiens (Human), UniProt P42336). The experiment in a line: KINOMEscan enzyme binding assay, PIK3Cα. The following applies: DiscoveRx. As for the experimental part: (§1) Enzyme Binding Assays (KINOMEscan®) Kinase enzyme binding affinities of compounds disclosed herein were determined using the KINOMEscan technology performed by DiscoveRx Corporation, San Diego, Calif., USA (www.kinomescan.com).
PIK3Cα_h, sequence (P42336 whole entry): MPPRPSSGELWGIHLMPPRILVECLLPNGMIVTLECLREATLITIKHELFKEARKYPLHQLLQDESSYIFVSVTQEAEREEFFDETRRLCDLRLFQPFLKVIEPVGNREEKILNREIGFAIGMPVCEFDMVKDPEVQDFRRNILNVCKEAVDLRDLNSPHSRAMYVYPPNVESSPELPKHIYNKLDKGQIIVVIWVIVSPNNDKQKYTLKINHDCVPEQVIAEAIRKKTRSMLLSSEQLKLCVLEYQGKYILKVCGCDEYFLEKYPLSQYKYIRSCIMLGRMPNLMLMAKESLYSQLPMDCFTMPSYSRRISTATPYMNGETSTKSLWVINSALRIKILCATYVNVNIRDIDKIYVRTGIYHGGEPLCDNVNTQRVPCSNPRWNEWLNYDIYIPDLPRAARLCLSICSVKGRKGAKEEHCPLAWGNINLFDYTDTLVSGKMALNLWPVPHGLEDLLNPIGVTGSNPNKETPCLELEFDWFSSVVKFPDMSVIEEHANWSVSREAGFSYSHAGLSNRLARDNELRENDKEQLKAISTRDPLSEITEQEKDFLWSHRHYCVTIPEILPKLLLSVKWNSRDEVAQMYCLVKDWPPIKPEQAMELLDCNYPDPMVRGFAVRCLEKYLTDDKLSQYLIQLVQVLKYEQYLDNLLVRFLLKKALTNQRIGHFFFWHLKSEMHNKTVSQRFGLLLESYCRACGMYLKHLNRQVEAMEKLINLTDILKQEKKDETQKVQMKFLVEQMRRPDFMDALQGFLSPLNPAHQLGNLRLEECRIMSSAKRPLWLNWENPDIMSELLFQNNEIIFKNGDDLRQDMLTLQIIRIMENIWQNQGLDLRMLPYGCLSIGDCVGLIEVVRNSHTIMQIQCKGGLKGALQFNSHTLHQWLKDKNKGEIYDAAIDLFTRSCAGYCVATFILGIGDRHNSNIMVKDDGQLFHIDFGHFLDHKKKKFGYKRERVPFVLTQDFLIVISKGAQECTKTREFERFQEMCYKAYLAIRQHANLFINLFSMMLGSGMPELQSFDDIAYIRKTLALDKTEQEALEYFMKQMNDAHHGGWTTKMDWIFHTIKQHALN

For a further assay, the target named is PIK3Cβ_h (Homo sapiens (Human), UniProt P42338). Kind of assay: KINOMEscan enzyme binding assay, PIK3Cβ. The settings on record: DiscoveRx. How it is done:
(§2) Enzyme Binding Assays (KINOMEscan®) Kinase enzyme binding affinities of compounds disclosed herein were determined using the KINOMEscan technology performed by DiscoveRx Corporation, San Diego, Calif., USA (www.kinomescan.com). Table A reports the obtained Kd values (nM), with the Kd being the inhibitor binding constant: […]

In another assay the target is PIK3Cδ_h (Homo sapiens (Human), UniProt O00329). The experiment in a line: KINOMEscan enzyme binding assay, PIK3Cδ. The following applies: DiscoveRx. How it is done: as §2
PIK3Cδ_h, sequence (O00329 whole entry): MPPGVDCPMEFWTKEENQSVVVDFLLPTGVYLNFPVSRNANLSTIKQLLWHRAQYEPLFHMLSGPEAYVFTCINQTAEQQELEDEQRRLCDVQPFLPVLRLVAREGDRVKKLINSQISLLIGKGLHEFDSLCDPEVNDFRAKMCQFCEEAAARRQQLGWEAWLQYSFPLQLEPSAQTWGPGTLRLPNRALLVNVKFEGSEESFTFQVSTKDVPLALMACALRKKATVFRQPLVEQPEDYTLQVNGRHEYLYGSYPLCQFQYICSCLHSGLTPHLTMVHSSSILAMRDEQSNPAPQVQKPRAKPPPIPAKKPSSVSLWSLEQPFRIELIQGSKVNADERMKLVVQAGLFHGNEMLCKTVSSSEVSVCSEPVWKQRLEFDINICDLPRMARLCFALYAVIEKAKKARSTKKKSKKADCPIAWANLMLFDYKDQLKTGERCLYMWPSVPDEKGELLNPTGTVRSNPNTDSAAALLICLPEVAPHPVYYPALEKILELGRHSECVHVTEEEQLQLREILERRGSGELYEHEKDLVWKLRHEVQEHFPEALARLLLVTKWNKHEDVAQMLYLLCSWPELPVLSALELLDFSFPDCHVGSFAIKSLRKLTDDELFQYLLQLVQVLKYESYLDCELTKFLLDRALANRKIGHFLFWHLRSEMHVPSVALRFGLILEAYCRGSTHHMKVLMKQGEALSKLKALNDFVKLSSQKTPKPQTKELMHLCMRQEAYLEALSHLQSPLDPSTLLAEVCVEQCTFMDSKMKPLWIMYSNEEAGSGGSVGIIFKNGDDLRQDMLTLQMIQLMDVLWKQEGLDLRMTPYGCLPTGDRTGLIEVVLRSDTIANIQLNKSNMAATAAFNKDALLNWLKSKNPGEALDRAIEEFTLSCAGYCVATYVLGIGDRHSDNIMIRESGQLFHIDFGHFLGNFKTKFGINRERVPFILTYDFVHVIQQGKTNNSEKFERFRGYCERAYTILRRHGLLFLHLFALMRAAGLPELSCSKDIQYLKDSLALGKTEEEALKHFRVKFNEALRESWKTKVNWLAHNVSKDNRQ
The target in a further assay is PIK3Cγ_h (Homo sapiens (Human), UniProt P48736). Kind of assay: KINOMEscan enzyme binding assay, PIK3Cγ. The following applies: DiscoveRx. How it is done: as §1
PIK3Cγ_h, sequence (P48736 whole entry): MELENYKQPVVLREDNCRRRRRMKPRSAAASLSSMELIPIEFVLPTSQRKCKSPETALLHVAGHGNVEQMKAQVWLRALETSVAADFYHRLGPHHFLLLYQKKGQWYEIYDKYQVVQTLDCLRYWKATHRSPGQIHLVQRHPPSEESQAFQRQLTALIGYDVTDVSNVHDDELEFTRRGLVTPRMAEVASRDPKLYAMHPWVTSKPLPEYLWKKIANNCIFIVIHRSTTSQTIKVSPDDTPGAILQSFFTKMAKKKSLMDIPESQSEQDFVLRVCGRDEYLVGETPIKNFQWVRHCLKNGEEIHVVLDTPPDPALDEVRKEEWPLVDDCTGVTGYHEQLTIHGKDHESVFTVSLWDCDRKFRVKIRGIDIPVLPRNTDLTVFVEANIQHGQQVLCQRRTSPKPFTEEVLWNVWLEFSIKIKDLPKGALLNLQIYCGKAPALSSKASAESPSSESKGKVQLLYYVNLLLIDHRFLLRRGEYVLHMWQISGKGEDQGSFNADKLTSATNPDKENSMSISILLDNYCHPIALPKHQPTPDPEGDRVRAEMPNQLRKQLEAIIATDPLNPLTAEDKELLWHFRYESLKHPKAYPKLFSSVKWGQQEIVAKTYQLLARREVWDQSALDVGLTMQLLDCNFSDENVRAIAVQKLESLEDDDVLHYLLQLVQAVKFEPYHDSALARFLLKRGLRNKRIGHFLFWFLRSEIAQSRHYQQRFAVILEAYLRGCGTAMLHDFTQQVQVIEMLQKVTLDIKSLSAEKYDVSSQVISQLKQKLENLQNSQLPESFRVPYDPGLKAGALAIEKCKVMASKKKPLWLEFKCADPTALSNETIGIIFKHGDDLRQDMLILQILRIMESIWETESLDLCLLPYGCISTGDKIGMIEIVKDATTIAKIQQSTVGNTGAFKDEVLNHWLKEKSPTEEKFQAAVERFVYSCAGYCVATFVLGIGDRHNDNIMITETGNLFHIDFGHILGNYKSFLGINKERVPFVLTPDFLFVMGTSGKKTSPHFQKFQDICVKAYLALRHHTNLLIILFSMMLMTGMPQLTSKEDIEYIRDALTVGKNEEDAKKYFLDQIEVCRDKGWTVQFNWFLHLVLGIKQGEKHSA
For a further assay, the target named is MTOR_h (Homo sapiens (Human), UniProt P42345). The experiment in a line: KINOMEscan enzyme binding assay, MTOR. The following applies: DiscoveRx. How it is done: as §1
In assay [1] the test system is Akt phosphorylated at Ser473 in PC-3 cells. Kind of assay: Cellular assay: phosphorylation of Akt (Ser473) in PC-3 cells, MSD ELISA. It counts as cell-based. The following applies: 60 min incubation with compound, read-out: IC50 pAkt_S473. As for the experimental part: (§3) Cellular activity of PI3Kβ inhibitors was determined by quantifying the phosphorylation of Akt in PC-3 cells. Akt phosphorylated at Ser473 and Thr308 were measured using an enzyme-linked immunosorbent assay (ELISA; Meso Scale Discovery (MSD), Gaithersburg, Md.) and specific primary antibodies from MSD.
(§4) On day 1, PC3 cells (ATCC # […]) were seeded into PerkinElmer MW96 plates at 25.000 cells per well, in 75 μl complete culture medium (DMEM (Dulbecco's Modified Eagle's Medium) high glucose, AQmedia™, D0819, Sigma-Aldrich) containing 10% heat inactivated FCS (Fetal Bovine Serum) and incubated at 37° C., 5% CO2 during 24 hours. On day 2, compound or DMSO (dimethyl sulfoxide) (0.3%) was added and cells were further incubated for 60 min at 37° C., 5% CO2 in a total volume of 100 μl of medium.
(§5) The phosphoprotein assay was executed according to vendor instructions in the Phospho-Akt (Ser473) Assay Whole Cell Lysate Kit (MSD # K15100D-3) and the Phospho-Akt (Thr308) Assay Whole Cell Lysate Kit (MSD # K151DYD-3) using the lysis, blocking and wash buffer provided.
(§6) Briefly, at the end of the cell treatment period, media were removed by aspiration and adherent cells were lysed in 50 μl ice-cold lysis buffer. MSD plates are supplied pre-coated with capture antibodies for Phospho-Akt (Ser473 and Thr308). After blocking, lysates from tissue culture plates were added and plates were washed. Then, a solution containing the detection antibody (anti-total Akt conjugated with an electrochemiluminescent compound-MSD Sulfo-tag label) was added. The signals were detected using an MSD SECTOR Imager 6000 and are proportional to the phospho-Akt titres.
(§7) Data were processed. The percentage of inhibition was plotted against the log concentration of test compounds, and the sigmoidal log concentration-effect curve of best fit was calculated by nonlinear regression analysis. From these concentration-response curves, the IC50 values were calculated. Five concentrations were used for curve fitting.

Assay [2] deals with Akt phosphorylated at Thr308 in PC-3 cells. The experiment in a line: Cellular assay: phosphorylation of Akt (Thr308) in PC-3 cells, MSD ELISA. It counts as cell-based. The settings on record: 60 min incubation with compound, read-out: IC50 pAkt_Thr308. How it is done: as §3, §4, §5, §6, §7
A general note: In an ELISA, binding on a coated surface is turned into a signal by an enzyme label.

SMILES strings stand for the structures. pIC50, pKd: −log10 of the molar value. Where two headings read alike, the source gives them in different places.

PIK3Cβ_h, sequence (P42338 whole entry): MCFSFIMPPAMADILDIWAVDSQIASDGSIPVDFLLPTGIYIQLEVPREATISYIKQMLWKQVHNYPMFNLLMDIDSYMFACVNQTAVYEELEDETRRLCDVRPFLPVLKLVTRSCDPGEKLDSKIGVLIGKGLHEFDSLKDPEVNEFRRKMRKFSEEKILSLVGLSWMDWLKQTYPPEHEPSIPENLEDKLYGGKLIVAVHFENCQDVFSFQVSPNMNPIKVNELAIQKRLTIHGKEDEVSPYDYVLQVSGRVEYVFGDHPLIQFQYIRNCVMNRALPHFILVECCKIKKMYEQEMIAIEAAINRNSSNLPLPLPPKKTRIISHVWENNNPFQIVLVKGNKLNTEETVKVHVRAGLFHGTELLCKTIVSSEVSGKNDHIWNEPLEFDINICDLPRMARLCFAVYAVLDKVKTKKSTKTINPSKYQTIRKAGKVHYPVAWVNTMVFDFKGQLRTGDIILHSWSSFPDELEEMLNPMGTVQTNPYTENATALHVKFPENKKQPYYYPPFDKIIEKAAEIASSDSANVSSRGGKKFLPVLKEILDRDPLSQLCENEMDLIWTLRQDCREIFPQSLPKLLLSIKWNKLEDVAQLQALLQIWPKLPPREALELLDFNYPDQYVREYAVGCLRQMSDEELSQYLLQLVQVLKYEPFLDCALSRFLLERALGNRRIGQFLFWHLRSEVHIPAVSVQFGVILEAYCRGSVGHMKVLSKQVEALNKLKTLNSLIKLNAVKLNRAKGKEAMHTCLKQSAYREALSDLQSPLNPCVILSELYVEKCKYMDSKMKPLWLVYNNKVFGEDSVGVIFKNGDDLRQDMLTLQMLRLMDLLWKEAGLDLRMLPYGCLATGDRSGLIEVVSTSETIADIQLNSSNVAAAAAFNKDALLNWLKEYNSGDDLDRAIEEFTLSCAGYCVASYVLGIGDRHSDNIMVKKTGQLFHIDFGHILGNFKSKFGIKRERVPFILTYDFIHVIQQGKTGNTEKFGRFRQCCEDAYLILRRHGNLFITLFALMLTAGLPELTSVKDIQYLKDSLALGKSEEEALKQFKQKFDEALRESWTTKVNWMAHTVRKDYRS

As a reminder, the pKd is the Kd on a negative log10 scale, so that one unit is a factor of ten. The low end stands for a large Kd, the high end for a small Kd. For orientation: pIC50 means −log10 of the IC50, conventionally taken in molar units. In the case of `Cc1c(Cc2c(CCO)nc3c(-c4c[nH]cn4)cc(N4CCOCC4)nn23)cccc1C(F)(F)F` [Compound 24], the pKd was 5.95 at PIK3Cα_h; 8.52 at PIK3Cβ_h; 6.83 at PIK3Cδ_h; 5.47 on PIK3Cγ_h; 5.60 on MTOR_h. The pIC50 in assay [1] (Homo sapiens, PC-3, 1 h) is 7.37; in assay [2] (Homo sapiens, PC-3, 1 h) it was 7.43.
On to `Cc1nc2c(N)cc(N3CCOCC3)nn2c1Cc1cccc2c1CN(C(C)C)CC2` [Compound 110], for which the pKd was below 4.52 at PIK3Cα_h; 6.29 on PIK3Cβ_h; 5.62 at PIK3Cδ_h; below 4.52 at PIK3Cγ_h; below 4.52 on MTOR_h. Besides, the pIC50 in assay [1] (Homo sapiens, PC-3, 1 h) is 6.49; in assay [2] (Homo sapiens, PC-3, 1 h) it was 6.65.
`Cc1nc2c(N)cc(N3CCOCC3)nn2c1Nc1cccc(C(F)(F)F)c1CNC(C)CO` (centres unmarked) [Compound 55]: the pKd at PIK3Cα_h is 5.95; on PIK3Cβ_h it was 9.05; on PIK3Cδ_h, 8.05; at PIK3Cγ_h, 4.90; at MTOR_h, below 4.52. Besides, the pIC50 was 8.00 in assay [1] (Homo sapiens, PC-3, 1 h) and 8.15 in assay [2] (Homo sapiens, PC-3, 1 h).
For `Cc1nc2c(-c3ncc[nH]3)cc(N3CCOCC3)nn2c1Nc1cccc(C(F)(F)F)c1C` [Compound 34], the pKd at PIK3Cα_h was 5.65; on PIK3Cβ_h, 8.52; on PIK3Cδ_h, 7.09; at PIK3Cγ_h it was 5.16; on MTOR_h, below 5.00. For the same molecule, the pIC50 was around 7.25 in assay [1] (Homo sapiens, PC-3, 1 h) and around 7.49 in assay [2] (Homo sapiens, PC-3, 1 h).
Regarding `Cc1c(Cc2c(CO)nc3c(-c4c[nH]cn4)cc(N4CCOC(C)C4)nn23)cccc1C(F)(F)F` (centres unmarked) [Compound 25], the pKd on PIK3Cα_h is below 4.52; at PIK3Cβ_h it was 6.70; at PIK3Cδ_h, below 4.52; on PIK3Cγ_h, below 4.52; on MTOR_h, 5.93. Moreover, the pIC50 was 6.35 in assay [1] and below 6.29 in assay [2].
On to `CC(CO)NCc1c(F)cccc1Cc1c(CO)nc2c(N)cc(N3CCOCC3)nn12` (centres unmarked) [Compound 102], for which the pKd on PIK3Cα_h is below 4.52; on PIK3Cβ_h, 6.85; on PIK3Cδ_h it was 5.82; at PIK3Cγ_h, below 4.52; at MTOR_h it was below 4.52. The pIC50 in assay [1] (Homo sapiens, PC-3, 1 h) is below 6.29; in assay [2] (Homo sapiens, PC-3, 1 h) it was below 6.29.
Take `Cc1nc2c(C(N)=O)cc(N3CCOCC3)nn2c1Cc1cccc(Cl)c1C` [Compound 11]: the pKd at PIK3Cα_h was 5.57; on PIK3Cβ_h it was 7.68; at PIK3Cδ_h it was 6.02; on PIK3Cγ_h, 5.16; on MTOR_h, 4.65. Also, the pIC50 in assay [1] (Homo sapiens, PC-3, 1 h) is around 6.80; in assay [2] (Homo sapiens, PC-3, 1 h), 6.45.
With `Cc1nc2c(C(N)=O)cc(N3CCOCC3)nn2c1Cc1cccc(C(F)(F)F)c1C` [Compound 10], the pKd was below 4.52 on PIK3Cα_h; 7.70 on PIK3Cβ_h; 4.90 on PIK3Cδ_h; below 4.52 on PIK3Cγ_h; below 4.52 on MTOR_h. Also, the pIC50 is 6.30 in assay [1] (Homo sapiens, PC-3, 1 h) and below 6.29 in assay [2] (Homo sapiens, PC-3, 1 h).
As to `Cc1nc2c(N)cc(N3CCOCC3)nn2c1Nc1cccc(C(F)(F)F)c1CN1CCN(C)CC1` [Compound 58], the pKd on PIK3Cα_h was 5.37; at PIK3Cβ_h, 9.40; on PIK3Cδ_h, 7.70; on PIK3Cγ_h it was 4.91; on MTOR_h it was 4.67. The pIC50 in assay [1] (Homo sapiens, PC-3, 1 h) is 7.68; in assay [2] (Homo sapiens, PC-3, 1 h) it was 7.77.
For the molecule `Cc1nc2c(N)cc(N3CCOCC3)nn2c1Nc1cccc(C(F)(F)F)c1CN1CCS(=O)(=O)CC1` [Compound 43], the pKd on PIK3Cα_h was 5.48; on PIK3Cβ_h, 8.70; on PIK3Cδ_h, 7.33; on PIK3Cγ_h, 5.11; at MTOR_h, below 4.52. For the same molecule, the pIC50 was around 6.47 in assay [1] (Homo sapiens, PC-3, 1 h) and 6.77 in assay [2] (Homo sapiens, PC-3, 1 h).
In the case of `Cc1nc2c(N)cc(N3CCOCC3)nn2c1Nc1cccc2c1CCNC2` [Compound 64], the negative logarithm of the Kd (pKd) at PIK3Cα_h is 4.68; on PIK3Cβ_h, 8.10; at PIK3Cδ_h it was 7.47; on PIK3Cγ_h it was below 4.52; at MTOR_h, 4.77. Moreover, the pIC50 in assay [1] (Homo sapiens, PC-3, 1 h) was 6.78; in assay [2] (Homo sapiens, PC-3, 1 h) it was 6.95.
